Results as given in US9850283B2, “Macrocyclic inhibitors of the PD-1/PD-L1 and CD80(B7-1)/PD-L1 protein/protein interactions” (BRISTOL-MYERS SQUIBB COMPANY, priority 2013, dated 2017).
Where two headings read alike, the source gives them in different places. Positions of bridges follow the written chain, without caps; N, C: chain ends. Non-standard residues stand in square brackets, D forms with d. Residues, ends and D or L forms follow the SMILES beside them. ξ: configuration not given here. ξTrp(5-F) = NC(Cc1c[nH]c2ccc(F)cc12)C(=O)O; Phe(2-OMe) = COc1ccccc1C[C@H](N)C(=O)O; Bta = N[C@@H](Cc1csc2ccccc12)C(=O)O; cisHyp = O=C(O)[C@@H]1C[C@H](O)CN1; hhPhe = N[C@@H](CCCc1ccccc1)C(=O)O; NMeNle = CCCC[C@H](NC)C(=O)O; NMeA = CN[C@@H](C)C(=O)O; Dab = NCC[C@H](N)C(=O)O; Dap = NC[C@H](N)C(=O)O; Sar = CNCC(=O)O

Legend:
[1] = molecular target: T1, LK35.2-hPD-L1 cells / PE-labeled PD-1-Ig (Homo sapiens, UniProt Q9NZQ7); experiment: LK35.2-hPD-L1 cell binding high-content screening assay; type: cell-based
T1 construct: expressed in transfected cells; host or cells: LK35.2 mouse B cell line
T1 sequence (Q9NZQ7 19-290): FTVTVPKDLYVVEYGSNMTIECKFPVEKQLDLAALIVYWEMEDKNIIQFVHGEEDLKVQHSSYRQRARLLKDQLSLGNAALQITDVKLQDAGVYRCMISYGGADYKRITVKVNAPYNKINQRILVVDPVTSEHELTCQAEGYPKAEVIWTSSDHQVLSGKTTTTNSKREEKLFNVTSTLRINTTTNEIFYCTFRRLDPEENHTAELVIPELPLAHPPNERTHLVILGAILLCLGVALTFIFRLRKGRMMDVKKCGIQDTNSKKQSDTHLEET
How it was run: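 Mouse LK35.2 B cells stably over-expressing human PD-L1, cultured overnight, treated with compound plus PE-labeled human PD-1-Ig (1 nM final) in RPMI/10% FCS for 1 h at 37 °C. After washing, bound fluorescence quantified by high-content imaging.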

[2] = molecular target: T2, Human PD-L1/PD-1 (Homo sapiens, UniProt Q9NZQ7); experiment: HTRF PD-1-Ig/PD-L1-His binding assay (human PD-L1)
T2 construct: made in house; host or cells: HEK293T
T2 sequence (Q9NZQ7 with tags, fused parts or gaps): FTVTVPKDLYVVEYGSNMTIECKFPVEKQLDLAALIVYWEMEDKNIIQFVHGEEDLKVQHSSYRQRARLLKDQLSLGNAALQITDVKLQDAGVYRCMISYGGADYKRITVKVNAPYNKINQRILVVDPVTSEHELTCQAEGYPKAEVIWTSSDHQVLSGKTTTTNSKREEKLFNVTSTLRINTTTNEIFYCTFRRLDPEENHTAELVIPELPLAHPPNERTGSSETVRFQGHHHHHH
How it was run: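 Steps: truncated PD-1-Ig and PD-L1-His fusions are incubated in dPBS containing 0.1% (w/v) BSA and 0.05% (v/v) Tween-20. Detection antibodies are then added (Eu cryptate anti-Ig at 1 nM final, APC anti-His at 20 nM final), and time-resolved FRET is measured.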

[3] = cluster symbol, cell line of CBA not given (LK35.2-hPD-L1 or 293T-hPD-L1), read-out: CBA IC50 cluster
[4] = cluster symbol, read-out: HTRF IC50 cluster
[5] = cell binding assay, cell line not given, cluster symbol, read-out: CBA IC50 cluster

Compound	IC50 [1, 3] [nM]	IC50 [2, 4] [nM]	IC50 [1, 5] [nM]	IC50 ([1]; cell binding assay, cell line not given, value given instead of cluster, read-out: CBA IC50 value) [nM]	IC50 ([2]; value given instead of cluster, read-out: HTRF IC50 value) [nM]
CCCC[C@H]1C(=O)N(C)CC(=O)N[C@@H](CC(=O)O)C(=O)N[C@@H](C(C)C)C(=O)N(C)[C@@H](Cc2ccccc2)C(=O)N[C@@H](Cc2ccc(O)cc2)C(=O)N(C)CC(=O)N[C@@H](Cc2c[nH]c3ccccc23)C(=O)N[C@@H](Cc2ccc(O)cc2)C(=O)N[C@@H](CC(C)C)C(=O)N[C@H](C(=O)NCC(N)=O)CSCC(=O)N[C@@H](Cc2c[nH]c3ccccc23)C(=O)N(C)[C@@H](Cc2ccccc2)C(=O)N1C [Example 3090] (HELM PEPTIDE1{[O=C(C[*:3])[*:2]].W.[meF].[CCCC[C@@H](C(=O)[*:2])N(C)[*:1]].[Sar].D.V.[meF].Y.[Sar].W.Y.L.C.G.[am]}$PEPTIDE1,PEPTIDE1,1:R3-14:R3$$$V2.0)	> 74.3	> 30.5	–	–	–
CCCC[C@H]1C(=O)N(C)[C@@H](CCCC)C(=O)N[C@@H](CCCNC(=N)N)C(=O)N[C@H](C(=O)NCC(N)=O)CSCC(=O)N[C@@H](Cc2ccccc2)C(=O)N(C)[C@@H](C)C(=O)N[C@@H](CC(N)=O)C(=O)N2CCC[C@H]2C(=O)N[C@@H](Cc2cnc[nH]2)C(=O)N[C@@H](CC(C)C)C(=O)N(C)CC(=O)N[C@@H](Cc2c[nH]c3ccccc23)C(=O)N[C@@H](CO)C(=O)NC(Cc2c[nH]c3ccc(F)cc23)C(=O)N1C (stereo partly shown) [Example 1039] ({CH2CO}-F[NMeA]NPHL[Sar]WS[ξTrp(5-F)][NMeNle][NMeNle]RCG-NH2; thioether N-14)	4.78 to 72.9	> 30.5	–	–	–
CCCC[C@H]1C(=O)N(C)[C@@H](CCCC)C(=O)N[C@@H](CCCNC(=N)N)C(=O)N[C@H](C(=O)NCC(=O)NCC(=O)NCC(N)=O)CSCC(=O)N[C@@H](Cc2ccc(O)cc2)C(=O)N(C)[C@@H](C)C(=O)N[C@@H](CC(N)=O)C(=O)N2CCC[C@H]2C(=O)N[C@@H](Cc2cnc[nH]2)C(=O)N[C@@H](CC(C)C)C(=O)N2CCC[C@H]2C(=O)N[C@@H](Cc2c[nH]c3ccccc23)C(=O)N[C@@H](CO)C(=O)N[C@@H](Cc2c[nH]c3ccccc23)C(=O)N1C [Example 6020] ({CH2CO}-Y[NMeA]NPHLPWSW[NMeNle][NMeNle]RCGGG-NH2; thioether N-14)	–	0.385 to 6.74	0.158 to 4.71	–	–
CCCC[C@H]1C(=O)N(C)[C@@H](CCCC)C(=O)N[C@@H](CCCNC(=N)N)C(=O)N[C@H](C(=O)NCC(N)=O)CSCC(=O)N[C@@H](Cc2ccccc2OC)C(=O)N(C)[C@@H](C)C(=O)N[C@@H](CC(N)=O)C(=O)N2CCC[C@H]2C(=O)N[C@@H](Cc2cnc[nH]2)C(=O)N[C@@H](CC(C)C)C(=O)N2CCC[C@H]2C(=O)N[C@@H](Cc2c[nH]c3ccccc23)C(=O)N[C@@H](CO)C(=O)N[C@@H](Cc2c[nH]c3ccccc23)C(=O)N1C [Example 7017] ({CH2CO}-[Phe(2-OMe)][NMeA]NPHLPWSW[NMeNle][NMeNle]RCG-NH2; thioether N-14)	–	0.385 to 6.74	4.78 to 72.9	–	–
CCCC[C@H]1C(=O)N(C)CC(=O)N[C@@H](CC(=O)O)C(=O)N[C@@H](C(C)C)C(=O)N(C)[C@@H](Cc2ccccc2)C(=O)N[C@@H](Cc2ccc(O)cc2)C(=O)N(C)CC(=O)N[C@@H](Cc2c[nH]c3ccccc23)C(=O)N[C@@H](Cc2ccc(O)cc2)C(=O)N[C@@H](CC2CCCCC2)C(=O)N[C@H](C(=O)NCC(N)=O)CSCC(=O)N[C@@H](Cc2ccccc2)C(=O)N(C)[C@@H](Cc2ccccc2)C(=O)N1C [Example 3096] (HELM PEPTIDE1{[O=C(C[*:3])[*:2]].F.[meF].[CCCC[C@@H](C(=O)[*:2])N(C)[*:1]].[Sar].D.V.[meF].Y.[Sar].W.Y.[Cha].C.G.[am]}$PEPTIDE1,PEPTIDE1,1:R3-14:R3$$$V2.0)	4.78 to 72.9	6.76 to 30.3	–	–	–
CCCC[C@H]1C(=O)N(C)[C@@H](CCCC)C(=O)N[C@@H](CCCNC(=N)N)C(=O)N[C@H](C(=O)NCC(N)=O)CSCC(=O)N[C@@H](Cc2ccccc2)C(=O)N(C)[C@@H](C)C(=O)N[C@@H](CC(N)=O)C(=O)N2CCC[C@H]2C(=O)N[C@@H](Cc2cnc[nH]2)C(=O)N[C@@H](CCC(=O)O)C(=O)N(C)CC(=O)N[C@@H](Cc2c[nH]c3ccccc23)C(=O)N[C@@H](CO)C(=O)N[C@@H](Cc2c[nH]c3ccccc23)C(=O)N1C [Example 1054] ({CH2CO}-F[NMeA]NPHE[Sar]WSW[NMeNle][NMeNle]RCG-NH2; thioether N-14)	4.78 to 72.9	0.385 to 6.74	–	–	–
CCCC[C@H]1C(=O)N(C)[C@@H](CCCC)C(=O)N[C@@H](C)C(=O)N[C@H](C(=O)NCC(N)=O)CSCC(=O)N[C@@H](Cc2ccc(O)cc2)C(=O)N(C)[C@@H](C)C(=O)N[C@@H](CC(=O)O)C(=O)N2CCC[C@H]2C(=O)N[C@@H](Cc2cnc[nH]2)C(=O)N[C@@H](CC(C)C)C(=O)N2CCC[C@H]2C(=O)N[C@@H](Cc2c[nH]c3ccccc23)C(=O)N[C@@H](CO)C(=O)N[C@@H](Cc2c[nH]c3ccccc23)C(=O)N1C [Example 1121] ({CH2CO}-Y[NMeA]DPHLPWSW[NMeNle][NMeNle]ACG-NH2; thioether N-14)	0.158 to 4.71	6.76 to 30.3	–	–	–
CCCC[C@H]1C(=O)N(C)[C@@H](CCCC)C(=O)N[C@@H](C)C(=O)N[C@H](C(=O)NCC(N)=O)CSCC(=O)N[C@@H](Cc2ccc(O)cc2)C(=O)N2CCC[C@H]2C(=O)N[C@@H](CC(=O)O)C(=O)N2CCC[C@H]2C(=O)N[C@@H](CN)C(=O)N[C@@H](CC(C)C)C(=O)N2C[C@@H](O)C[C@H]2C(=O)N[C@@H](Cc2c[nH]c3ccccc23)C(=O)N[C@@H](CCN)C(=O)N[C@@H](Cc2c[nH]c3ccccc23)C(=O)N1C [Example 1150] ({CH2CO}-YPDP[Dap]L[cisHyp]W[Dab]W[NMeNle][NMeNle]ACG-NH2; thioether N-14)	0.158 to 4.71	0.385 to 6.74	–	–	–
CC[C@H](C)[C@H]1C(=O)N(C)CC(=O)N[C@@H](CC(=O)O)C(=O)N[C@@H](C(C)C)C(=O)N(C)[C@@H](Cc2ccccc2)C(=O)N[C@@H](Cc2ccc(O)cc2)C(=O)N(C)CC(=O)N[C@@H](Cc2c[nH]c3ccccc23)C(=O)N[C@@H](Cc2ccc(O)cc2)C(=O)N[C@@H](CC(C)C)C(=O)N[C@H](C(=O)NCC(N)=O)CSCC(=O)N[C@@H](Cc2ccccc2)C(=O)N(C)[C@@H](Cc2ccccc2)C(=O)N1C [Example 3142] (HELM PEPTIDE1{[O=C(C[*:3])[*:2]].F.[meF].[meI].[Sar].D.V.[meF].Y.[Sar].W.Y.L.C.G.[am]}$PEPTIDE1,PEPTIDE1,1:R3-14:R3$$$V2.0)	4.78 to 72.9	6.76 to 30.3	–	–	–
CCCC[C@H]1C(=O)N(C)[C@@H](CCCC)C(=O)N[C@@H](CCCNC(=N)N)C(=O)N[C@H](C(=O)NCC(N)=O)CSCC(=O)N[C@@H](CCCc2ccccc2)C(=O)N(C)[C@@H](C)C(=O)N[C@@H](CC(N)=O)C(=O)N2CCC[C@H]2C(=O)N[C@@H](Cc2cnc[nH]2)C(=O)N[C@@H](CC(C)C)C(=O)N2CCC[C@H]2C(=O)N[C@@H](Cc2c[nH]c3ccccc23)C(=O)N[C@@H](CO)C(=O)N[C@@H](Cc2c[nH]c3ccccc23)C(=O)N1C [Example 7018] ({CH2CO}-[hhPhe][NMeA]NPHLPWSW[NMeNle][NMeNle]RCG-NH2; thioether N-14)	–	–	–	228	13.6
CCCC[C@H]1C(=O)N(C)[C@@H](CCCC)C(=O)N[C@@H](CCCCN)C(=O)N[C@H](C(=O)NCC(N)=O)CSCC(=O)N[C@@H](Cc2ccc(O)cc2)C(=O)N(C)[C@@H](C)C(=O)N[C@@H](CC(N)=O)C(=O)N2CCC[C@H]2C(=O)N[C@@H](Cc2cnc[nH]2)C(=O)N[C@@H](CC(C)C)C(=O)N2CCC[C@H]2C(=O)N[C@@H](Cc2c[nH]c3ccccc23)C(=O)N[C@@H](CO)C(=O)N[C@@H](Cc2csc3ccccc23)C(=O)N1C [Example 1041] ({CH2CO}-Y[NMeA]NPHLPWS[Bta][NMeNle][NMeNle]KCG-NH2; thioether N-14)	0.158 to 4.71	6.76 to 30.3	–	–	–
